Tests used:
[1] = system: increase in capillary permeability brought about by septide (a substance P agonist); test: inhibition of the increase in capillary permeability brought about by septide; assay type: in vivo; settings: Cavia porcellus, po; guinea pig, capillary permeability increase induced by septide
Text: The study of certain isoindole derivatives of general formula (I) in the technique of A. Saria et al., Arch.

[2] = system: formaldehyde pain; test: formaldehyde pain test in guinea pigs; assay type: in vivo; settings: Cavia porcellus, po, guinea pig
Protocol: Moreover, certain products according to the invention were studied in the formaldehyde pain test in guinea pigs. The ED50 of the product is determined in this way.

Compound	ED50 [1] [mg/kg]	ED50 [2] [mg/kg]
COc1ccccc1[C@@]1(O)C[C@@H](CC#N)C[C@@H]2CN(C(=O)Cc3ccccc3N3CCCC3)C[C@@H]21 (racemic) [Example 2, (3aRS,4RS,6RS,7aSR)-6-Cyanomethyl-4-(2-methoxyphenyl)-2-{[2-(1-pyrrolidinyl)phenyl]acetyl} perhydroisoindol-4-ol]	1	
N#CC[C@@H]1C[C@@H]2CN(C(=O)Cc3ccccc3O)C[C@@H]2[C@@](O)(c2ccccc2F)C1 (racemic) [Example 14, (3aRS,4RS,6SR,7aSR)-6-Cyanomethyl-4-(2-fluorophenyl)-2-(2-hydroxyphenylacetyl)perhydroisoindol-4-ol]	0.2 to 0.4	
COc1ccccc1CC(=O)N1C[C@@H]2C[C@@H](CNC#N)C[C@@](O)(c3ccccc3OC)[C@@H]2C1 (relative stereo) [Example 18, (3aRS,4RS,6SR,7aSR)-6-Cyanoaminomethyl-4-(2-methoxyphenyl)-2-[(2-methoxyphenyl)acetyl]perhydroisoindolol]	1	
COc1ccccc1[C@H](C)C(=O)N1C[C@@H]2C[C@@H](CC#N)C[C@@](O)(c3ccccc3OC)[C@@H]2C1 [Example 1, (3aS,4S,6S,7aR)-6-Cyanomethyl-4-(2-methoxyphenyl)-2-[(S)-2-(2-methoxylphenyl)propionyl]perhydroisoindol-4-ol]	0.004	1
COc1ccccc1[C@]1(O)C[C@H](CC#N)C[C@H]2CN(C(=O)[C@@H](C)c3ccccc3O)C[C@H]21 [Example 4, (3aS,4S,6S,7aR)-6-Cyanomethyl-2-[(S)-2-(2-hydroxyphenyl)propionyl]-4-(2-methoxyphenyl)perhydroisoindol-4-ol]	0.004	
COc1ccccc1CC(=O)N1C[C@@H]2C[C@@H](CC#N)C[C@@](O)(c3ccccc3OC)[C@@H]2C1 [Example 5, (3aS, 4S, 6S, 7aR)-6-Cyanomethyl-4-(2-methoxyphenyl)-2-[(2-methoxyphenyl)acetyl]perhydroisoindol-4-ol]	0.32	3 to 30
COc1ccccc1[C@]1(O)C[C@H](CC#N)C[C@H]2CN(C(=O)Cc3ccc(Cl)c(Cl)c3)C[C@H]21 [Example 7, (3aS,4S,6S,7aR)-6-Cyanomethyl-2-[(3,4-dichlorophenyl)acetyl]-4-(2-methoxyphenyl)perhydroisoindol-4-ol]	0.36	
COc1ccccc1[C@]1(O)C[C@H](CC#N)C[C@H]2CN(C(=O)[C@@H](N)c3ccccc3)C[C@H]21 [Example 9, (3aS,4S,6S,7aR)-2-[(S)-2-Amino-2-phenylacetyl]-6-cyanomethyl-4-(2-methoxyphenyl)perhydroisoindol-4-ol]		3 to 30
COc1ccccc1C(N)C(=O)N1C[C@@H]2C[C@@H](CC#N)C[C@@](O)(c3ccccc3OC)[C@@H]2C1 (stereo partly drawn) [Example 10]	0.05	
COc1ccccc1[C@H](C)C(=O)N1C[C@@H]2C[C@@H](CC#N)C[C@@](O)(c3ccccc3F)[C@@H]2C1 [Example 13, (3aS,4S,6S,7aR)-6-Cyanomethyl-4-(2-fluorophenyl)-2-[(S)-2-(2-methoxyphenyl)propionyl]perhydroisoindol-4-ol]	0.02	

Reference: patent US5739351A, “Perhydroisoindole derivatives as substance P antagonists” (Rhone-Poulenc Rorer S.A., priority 1994, dated 1998)
